The text below walks through data of article PMC3711097 (Molecular bioSystems, 2013).

What is called Km is the concentration of substrate that gives half-maximal velocity.

For the assay, the system named is KedF. Briefly: continuous spectrophotometric assay with periodate, […] nm. The assay is classed as biochemical, Streptoalloteichus sp. ATCC 53650. Particulars: 50 mM phosphate pH 8.0, 25 °C, 3 mM sodium periodate.

On to `c1ccc([C@@H]2CO2)cc1` [(R)-styrene oxide], for which the Km (9.6 μM KedF) came to 3500 ± 640 µM.

Take `c1ccc([C@H]2CO2)cc1` [(S)-styrene oxide]: the Km (4.0 μM KedF) came out at 910 ± 100 µM.
